`O=S(=O)(Cl)c1ccc2c(c1)CCCC2` registered a melting point of 44 to 46 °C. The figure for `N#Cc1c(C(=O)O)cc(C2CC2)[nH]c1=S` is 258 to 260 °C; for `CCc1oc2ccccc2c1C(=O)O` it is 89 to 91 °C. For `Nc1c(-c2ccc(F)cc2)nc2sccn12`, the melting point was 137 to 139 °C. The figure for `O=CCCc1nc2ccccc2o1` is 62 to 64 °C.

`COCC(C)n1cc(C(=O)O)c(C)n1` (configuration not stated) had a melting point of 114 to 116 °C. The figure for `CC(C)CNc1nnc(S)s1` is 155 to 157 °C; for `COc1ccc2c(c1)-c1sc(N)nc1CC2` it is 179 to 181 °C. `CC(O)c1cccc(O)c1` (configuration not stated): the melting point is 112 to 114 °C. Take `O=C(O)c1cnc2c(Br)cccc2c1O`: the melting point lay in the range of 276 to 278 °C.

Compound `COCCCC(N)=NO` returned a melting point of 84 to 86 °C. To `O=C(O)c1cc2ccccc2c(OCC(F)(F)F)n1` belongs 206 to 208 °C; to `Cc1nc2ccccc2n1CCO`, 147 to 149 °C; to `Cc1cnoc1N`, 59 to 61 °C. To `CC(=O)NC(Cc1c[nH]c2ccc(Br)cc12)C(=O)O` (configuration not stated) belongs 206 to 208 °C; to `Oc1nnc(-c2ccccc2)c(-c2ccccc2)n1`, 222 to 224 °C; to `Cc1cn2nc(N)c3ccccc3c2n1`, 216 to 218 °C.

As for `Nc1ccccc1N1CC(C(F)(F)F)OC1=O` (configuration not stated), the melting point was in the range of 74 to 76 °C. To `Nc1ccccc1C(=O)NC1CC1` belongs 135 to 136 °C; to `CC(=O)c1cccc(OC(C)C(=O)O)c1` (configuration not stated), 93 to 95 °C. Compound `O=C(O)c1cccc(C(O)C(=O)O)c1` (configuration not stated) showed a melting point of 189 to 191 °C. `O=C(O)C1CCN(c2ccc(Cl)cc2)C1=O` (configuration not stated) had a melting point of 158 to 160 °C. To `COc1ccccc1NC(=O)c1cc2ccccc2cc1O` belongs 161 to 164 °C; to `COC(=O)c1cc2c(C)c(C)ccc2[nH]1`, 144 to 146 °C. To `CON=C(C(=O)N[C@@H]1C(=O)N2C(C(=O)O)=C(CSc3nnnn3C)CS[C@H]12)c1csc(N)n1` belongs 159 to 161 °C. Consider `COC(=O)c1cccc(C(N)=S)c1`, for which the melting point lay within 137 to 139 °C. `Nc1nc2cc(Cl)ccc2s1` returned a melting point of 197 to 199 °C. The figure for `Nc1ccc(NC(=O)C2CCCO2)cc1C(F)(F)F` (configuration not stated) is 64 to 66 °C; for `CC(N)c1ccc(S(N)(=O)=O)cc1` (configuration not stated) it is 148 to 150 °C. To `Nc1ccn(-c2ccccc2)n1` belongs 77 to 79 °C; to `COc1ccc(Br)cc1NCc1ccncc1`, 89 to 91 °C; to `CC(C(=O)OCc1ccccc1)S(N)(=O)=O` (configuration not stated), 83 to 85 °C. The figure for `CN1C(=O)c2ccc(NC(=O)CCl)cc2C1=O` is 203 to 205 °C. Consider `CN(C)S(=O)(=O)c1cn(C)cn1`, for which the melting point was in the range of 119 to 121 °C. As for `CNc1ccnc(C)n1`, the melting point lay in the range of 79 to 81 °C.

Regarding `COC(=O)c1n[nH]c(C)c1Br`, the melting point fell in the range of 148 to 150 °C. To `Nn1c(S)nnc1-c1ccccc1Cl` belongs 110 to 113 °C. In turn, `CC(=O)c1ccc(S(=O)(=O)NCCCC(=O)O)cc1` had a melting point of 140 to 142 °C.

Compound `CC(C)CCc1cc(N)on1` showed a melting point of 61 to 63 °C. Regarding `CNc1ccnc(C)c1`, the melting point was in the range of 59 to 61 °C. To `O=C(CCOc1ccccc1)NO` belongs 138 to 140 °C; to `N#Cc1nccnc1Oc1ccc(N)cc1`, 170 to 172 °C; to `O=C1c2ccccc2C(=O)N1Cc1ccnc2ccnn12`, 274 to 276 °C. `O=C(O)CCC(=O)NCC(=O)c1ccccc1F` came in with a melting point of 156 to 158 °C. For `CC(CC(N)=NO)N(C)C(=O)OC(C)(C)C` (configuration not stated), the melting point was in the range of 102 to 104 °C. The figure for `Cc1cc(Br)cn2c(CO)cnc12` is 174 to 176 °C. The figure for `Cc1nn(C(C)C)c(C)c1N` is 58 to 60 °C; for `CS(=O)(=O)OCCn1cc(C#N)cn1` it is 64 to 66 °C; for `Cc1cc(Br)cc2c(=O)cc[nH]c12` it is 249 to 251 °C. The compound `CC(C)c1cccc(C(C)C)c1NCCO` showed a melting point of 72 to 74 °C.

Turning to `COc1ccccc1NS(=O)(=O)c1ccc(C(=O)O)cc1`, the melting point lay in the range of 201 to 203 °C. To `Cc1nn(-c2ccc(Br)cc2)cc1C(=O)O` belongs 229 to 231 °C.

With `Cc1nn(CC(F)(F)F)c(C)c1CC(=O)O`, the melting point lay within 157 to 159 °C.

As to `Nc1cccc(N2CCCC2=O)c1`, the melting point is 106 to 108 °C.

Take `c1ccc2sc(C3CCCCN3)nc2c1` (configuration not stated): the melting point lay within 200 to 202 °C.

`Cc1ccc(CN2CCOCC2)cc1N`: the melting point lay in the range of 125 to 127 °C.

Take `Cc1cc(NCc2ccco2)ncn1`: the melting point was in the range of 95 to 97 °C. To `Cc1ccc(Cl)c2c1NC(=O)C2=O` belongs 275 to 277 °C.

`O=C(O)CCOc1ccc(Cl)cc1[N+](=O)[O-]`: the melting point is 127 to 129 °C. `O=C(O)CNC(=O)c1cc2c(s1)CCC2`: the melting point was 207 to 209 °C. `Cn1c(-c2ccccc2)cnc1S` gave a melting point of 180 to 182 °C.

As for `COCCCC(=O)c1ccc(Br)cc1`, the melting point is 53 to 55 °C. In the case of `O=[N+]([O-])c1cc(S(=O)(=O)Cl)ccc1O`, the melting point was in the range of 52 to 54 °C. The figure for `O=C(O)c1cc(F)c(F)c(S(=O)(=O)Cl)c1` is 154 to 156 °C; for `O=C(Nc1ccccc1)C1CCc2ccccc2N1` (configuration not stated) it is 124 to 126 °C. To `Nc1c[nH]nc1-c1ccccc1` belongs 147 to 149 °C; to `CC1C(C(F)(F)F)OC(=O)N1c1ncccc1N` (configuration not stated), 62 to 64 °C; to `O=C(O)c1sccc1C1CC1`, 169 to 171 °C.

Compound `O=[N+]([O-])c1ccc(S)nc1` showed a melting point of 169 to 171 °C. `Nc1cc(-c2ccccc2)nn1CCO` yielded a melting point of 142 to 144 °C.

Regarding `CN(C)c1ccc(C=O)cc1[N+](=O)[O-]`, the melting point fell in the range of 104 to 106 °C.

In the case of `Cc1sc(=O)[nH]c1-c1ccccc1`, the melting point lay within 171 to 173 °C. To `CC(C)Oc1nnc(S)s1` belongs 105 to 107 °C; to `Fc1cc(F)c2cccnc2c1`, 76 to 78 °C.

`O=C(O)c1ccc(N2C(=O)CCC2=O)cc1` came in with a melting point of 210 to 212 °C. `OC(CCl)CNCc1ccccc1` (configuration not stated): the melting point fell in the range of 63 to 65 °C.

On to `O=C(CCl)Nc1ccccc1Br`, for which the melting point lay in the range of 78 to 80 °C.

`CC(C)c1noc2nc(-c3ccco3)cc(C(=O)O)c12` showed a melting point of 224 to 226 °C. On to `ClCc1nc(Cl)c2c3c(sc2n1)CCCC3`, for which the melting point is 89 to 91 °C. To `O=C1C=CC(=O)N1CCc1ccc(F)cc1` belongs 79 to 81 °C; to `Cc1c(C(=O)O)oc2c1C(=O)CCC2`, 227 to 229 °C; to `COC(=O)c1cc(Br)c(N)s1`, 88 to 90 °C.

`O=C(O)c1csc(Cc2ccccc2F)n1` registered a melting point of 154 to 156 °C. The figure for `CC1(c2ccc(Cl)s2)NC(=O)NC1=O` (configuration not stated) is 183 to 185 °C. To `Cn1c(CO)nnc1-c1ccccc1` belongs 184 to 186 °C. The figure for `O=C(O)c1sccc1S(=O)(=O)N1CCC(CO)CC1` is 143 to 145 °C; for `CC(C)n1ncc2cc(N)cnc21` it is 85 to 87 °C. For the compound `O=C(O)c1ccc(Cl)c(S(=O)(=O)Nc2ccc(Cl)cc2)c1`, the melting point was in the range of 214 to 216 °C. In the case of `Cc1ccccc1NS(=O)(=O)c1ccc(C(=O)O)cc1`, the melting point fell in the range of 256 to 258 °C. Compound `O=c1[nH]c(-c2cccc(F)c2)cs1` registered a melting point of 198 to 200 °C.

The compound `CCC1(c2ccccc2)NC(=O)NC1=O` (configuration not stated) had a melting point of 203 to 205 °C. The figure for `O=C(O)c1nc(-c2cccs2)n(-c2cccc(F)c2)n1` is 162 to 164 °C; for `O=S(=O)(Cl)c1cc(Cl)c(Br)s1` it is 61 to 63 °C. To `OCCn1c(CSc2nnc(-c3ccc4c(c3)OCO4)o2)nc2ccc(Cl)cc21` belongs 202 to 204 °C. In the case of `NC(=O)Nc1cccc(N)c1`, the melting point was in the range of 125 to 127 °C. Regarding `Cn1nc[nH]c1=O`, the melting point fell in the range of 169 to 171 °C. For `CC(C)n1nnnc1-c1ccc(N)cc1F`, the melting point lay in the range of 118 to 120 °C. The figure for `NNc1cnccn1` is 109 to 113 °C; for `Nc1nnc2n1CCCC2` it is 270 to 272 °C. The figure for `O=Cc1c(OCC(=O)O)ccc2ccccc12` is 174 to 176 °C. To `Nc1nc(CCl)nc2sc3c(c12)CCCCC3` belongs 174 to 176 °C; to `Cn1nc(C(=O)NN)c2ccccc2c1=O`, 134 to 136 °C; to `Cc1cc(N)nc(C)c1Br`, 147 to 149 °C. The compound `NC(C(=O)O)c1ccccc1C(F)(F)F` (configuration not stated) displayed a melting point of 282 to 284 °C. The figure for `CN(C(=O)C1CC1)c1ccccc1C(=O)O` is 166 to 168 °C; for `Nc1ccc(N2CCCC2=O)c(Cl)c1` it is 184 to 186 °C; for `O=C(O)C1CC(=O)N(CCc2ccccc2)C1` (configuration not stated) it is 188 to 190 °C. To `NCc1ccc(OCCOc2ccc(Cl)cc2)cc1` belongs 130 to 132 °C; to `CC1CCC(Nc2ccccn2)CC1` (configuration not stated), 149 to 151 °C; to `N#CC1(N2CCN(Cc3ccccc3)CC2)CCOCC1`, 105 to 107 °C.

As to `Cc1c(C(=O)O)oc2c1C(=O)CC(C)(C)C2`, the melting point lay in the range of 199 to 201 °C.

With `CC(C)(C)OC(=O)NC1CN(c2ccccc2)C1=O` (configuration not stated), the melting point fell in the range of 167 to 169 °C. To `Cc1c(NC(C)C(C)C)cccc1C(=O)O` (configuration not stated) belongs 90 to 92 °C; to `CCc1nn(C)c(Cl)c1C(=O)O`, 139 to 141 °C. The compound `O=C(O)c1ccc(F)c(I)c1` had a melting point of 169 to 171 °C. The figure for `Nc1cccc2c1C(=O)N(Cc1ccccc1)C2=O` is 147 to 149 °C; for `CC(N)c1nc(-c2ccccc2)c[nH]1` (configuration not stated) it is 129 to 131 °C; for `O=C(O)c1ccc(NC(=O)c2cc(Cl)cc(Cl)c2)cc1` it is 305 to 307 °C. The figure for `CC(=O)c1ccc(S(=O)(=O)N2CCCCCC2)cc1` is 73 to 77 °C; for `N#CCc1c[nH]c2ncccc12` it is 139 to 141 °C. To `O=C(O)Cc1c(F)cncc1Cl` belongs 99 to 101 °C. Consider `CC(C)CC(=O)Cc1ccc(Cl)cc1Cl`, for which the melting point lay within 28 to 30 °C.

By melting point is commonly meant the temperature, or range, at which the solid turns liquid.

Values taken from a melting point compilation (Tetko et al.).
